Assays:
Assay type in all cases: in vivo
[1] = tested on: lambsquarters (Chenopodium album, CHEAL); assay: Post-emerge test, greenhouse herbicide activity screening; conditions: post-emerge, 14 days after application, rating scale 0-100
In short: (§1)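 Visual ratings on a 0-100 scale (0 no damage, 100 all plants dead) were taken at 14 days after treatment. Rates of 15-1000 g ai/ha in acetone, 187 l/ha, were sprayed onto soil one day after planting (pre-emerge) or onto 2-3 leaf plants with 0.25% v/v surfactant (post-emerge).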

[2] = tested on: johnsongrass (Sorghum halepense, SORHA); assay: as above; conditions: post-emerge, 14 days after application, rating scale 0-100
In short: as §1

[3] = tested on: green foxtail (Setaria viridis, SETVI); assay: as above; conditions: post-emerge, 14 days after application, rating scale 0-100
In short: as §1

[4] = tested on: sicklepod (Cassia obtusifolia, CASOB); assay: as above; conditions: post-emerge, 14 days after application, rating scale 0-100
In short: as §1

[5] = tested on: large crabgrass (Digitaria sanguinalis, DIGSA); assay: as above; conditions: post-emerge, 14 days after application, rating scale 0-100
In short: as §1

[6] = tested on: velvetleaf (Abutilon theophrasti, ABUTH); assay: as above; conditions: post-emerge, 14 days after application, rating scale 0-100
In short: as §1

[7] = tested on: barnyardgrass (Echinochloa crus-galli, ECHCG); assay: as above; conditions: post-emerge, 14 days after application, rating scale 0-100
In short: as §1

[8] = tested on: redroot pigweed (Amaranthus retroflexus, AMARE); assay: as above; conditions: post-emerge, 14 days after application, rating scale 0-100
In short: as §1

[9] = tested on: ivyleaf morningglory (Ipomoea hederacea, IPOHE); assay: as above; conditions: post-emerge, 14 days after application, rating scale 0-100
In short: as §1

[10] = tested on: common ragweed (Ambrosia artemisizfolia L., AMBEL); assay: as above; conditions: post-emerge, 14 days after application, rating scale 0-100
In short: as §1

[11] = tested on: redroot pigweed (Amaranthus retroflexus, AMARE); assay: Pre-emerge test, greenhouse herbicide activity screening; conditions: rated 14 days after application, 0 = no damage, 100 = complete death
In short: as §1

[12] = tested on: lambsquarters (Chenopodium album, CHEAL); assay: as above; conditions: rated 14 days after application, 0 = no damage, 100 = complete death
In short: (§2)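 Sandy loam pots; pre-emerge: sown 1 d pre-spray, surface-watered after, then bottom-watered. Post-emerge: sown 8–21 d before, 2–3 leaf stage, + 0.25% v/v NIS, bottom-watered. Acetone, 187 l/ha track spray, 15–1000 g ai/ha. 0–100 injury score, day 14.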

[13] = tested on: johnsongrass (Sorghum halepense, SORHA); assay: as above; conditions: rated 14 days after application, 0 = no damage, 100 = complete death
In short: as §2

[14] = tested on: green foxtail (Setaria viridis, SETVI); assay: as above; conditions: rated 14 days after application, 0 = no damage, 100 = complete death
In short: as §2

[15] = tested on: sicklepod (Cassia obtusifolia, CASOB); assay: as above; conditions: rated 14 days after application, 0 = no damage, 100 = complete death
In short: as §2

[16] = tested on: large crabgrass (Digitaria sanguinalis, DIGSA); assay: as above; conditions: rated 14 days after application, 0 = no damage, 100 = complete death
In short: as §2

[17] = tested on: velvetleaf (Abutilon theophrasti, ABUTH); assay: as above; conditions: rated 14 days after application, 0 = no damage, 100 = complete death
In short: as §2

[18] = tested on: barnyardgrass (Echinochloa crus-galli, ECHCG); assay: as above; conditions: rated 14 days after application, 0 = no damage, 100 = complete death
In short: as §2

[19] = tested on: ivyleaf morningglory (Ipomoea hederacea, IPOHE); assay: as above; conditions: rated 14 days after application, 0 = no damage, 100 = complete death
In short: as §2

[20] = tested on: common ragweed (Ambrosia artemisizfolia L., AMBEL); assay: as above; conditions: rated 14 days after application, 0 = no damage, 100 = complete death
In short: as §2

[21] = tested on: field corn (Zea mays L., var. Dekalb 535, CORN); assay: Post-emerge test, crop safety; conditions: post-emerge, 14 days after application, rating scale 0-100
In short: as §2

[22] = tested on: upland rice (Oryza sp., var. Tebonnet, RICE); assay: Post-emerge test, crop safety; conditions: post-emerge, 14 days after application, rating scale 0-100
In short: as §2

[23] = tested on: field corn (Zea mays L., var. Dekalb 535, CORN); assay: Pre-emerge test, crop safety; conditions: rated 14 days after application, 0 = no damage, 100 = complete death
In short: (§3)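 Compounds in acetone were track-sprayed at 187 l/ha, 15–1000 g ai/ha, onto sandy loam pots. Pre-emerge seeds were sown one day before spraying, with surface watering afterwards. Post-emerge plants were at the 2–3 leaf stage and sprayed with 0.25% v/v non-ionic surfactant. Injury was rated 0–100 at 14 days.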

[24] = tested on: upland rice (Oryza sp., var. Tebonnet, RICE); assay: Pre-emerge test, crop safety; conditions: rated 14 days after application, 0 = no damage, 100 = complete death
In short: as §3

With `COc1c(Cl)cc(F)c(-n2c(=O)cc(C(F)(F)F)n(C)c2=O)c1NC(=O)c1cc(F)cc(F)c1` [2-50] the “phytotoxicity rating CHEAL” value ([1]; 63 g ai/ha) was 70, the “phytotoxicity rating CHEAL” value ([1]; 250 g ai/ha) was 90 and the “phytotoxicity rating SORHA” value ([2]; 63 g ai/ha) was 0. The “phytotoxicity rating SORHA” value ([2]; 250 g ai/ha) was 40, the “phytotoxicity rating SETVI” value ([3]; 63 g ai/ha) was 40 and the “phytotoxicity rating SETVI” value ([3]; 250 g ai/ha) was 60. For the same compound, the “phytotoxicity rating CASOB” value ([4]; 63 g ai/ha) was 80, the “phytotoxicity rating CASOB” value ([4]; 250 g ai/ha) was 90 and the “phytotoxicity rating DIGSA” value ([5]; 63 g ai/ha) was 10. The “phytotoxicity rating DIGSA” value ([5]; 250 g ai/ha) was 30, the “phytotoxicity rating ABUTH” value ([6]; 63 g ai/ha) was 100 and the “phytotoxicity rating ABUTH” value ([6]; 250 g ai/ha) was 100. The “phytotoxicity rating ECHCG” value ([7]; 63 g ai/ha) was 0, the “phytotoxicity rating ECHCG” value ([7]; 250 g ai/ha) was 30 and the “phytotoxicity rating AMARE” value ([8]; 63 g ai/ha) was 90. For the same compound, the “phytotoxicity rating AMARE” value ([8]; 250 g ai/ha) was 100, the “phytotoxicity rating IPOHE” value ([9]; 63 g ai/ha) was 100 and the “phytotoxicity rating IPOHE” value ([9]; 250 g ai/ha) was 100. For the same compound, the “phytotoxicity rating AMBEL” value ([10]; 63 g ai/ha) was 40, the “phytotoxicity rating AMBEL” value ([10]; 250 g ai/ha) was 65 and the “Pre-emerge Herbicidal Activity, phytotoxicity rating (0-100), AMARE” value ([11]; 63 g ai/ha) was 100. The “Pre-emerge Herbicidal Activity, phytotoxicity rating (0-100), AMARE” value ([11]; 250 g ai/ha) was 100, the “Pre-emerge Herbicidal Activity, phytotoxicity rating (0-100), CHEAL” value ([12]; 63 g ai/ha) was 100 and the “Pre-emerge Herbicidal Activity, phytotoxicity rating (0-100), CHEAL” value ([12]; 250 g ai/ha) was 100. For the same compound, the “Pre-emerge Herbicidal Activity, phytotoxicity rating (0-100), SORHA” value ([13]; 63 g ai/ha) was 30, the “Pre-emerge Herbicidal Activity, phytotoxicity rating (0-100), SORHA” value ([13]; 250 g ai/ha) was 80 and the “Pre-emerge Herbicidal Activity, phytotoxicity rating (0-100), SETVI” value ([14]; 63 g ai/ha) was 90. The “Pre-emerge Herbicidal Activity, phytotoxicity rating (0-100), SETVI” value ([14]; 250 g ai/ha) was 100, the “Pre-emerge Herbicidal Activity, phytotoxicity rating (0-100), CASOB” value ([15]; 63 g ai/ha) was 60 and the “Pre-emerge Herbicidal Activity, phytotoxicity rating (0-100), CASOB” value ([15]; 250 g ai/ha) was 100. The “Pre-emerge Herbicidal Activity, phytotoxicity rating (0-100), DIGSA” value ([16]; 63 g ai/ha) was 70, the “Pre-emerge Herbicidal Activity, phytotoxicity rating (0-100), DIGSA” value ([16]; 250 g ai/ha) was 100 and the “Pre-emerge Herbicidal Activity, phytotoxicity rating (0-100), ABUTH” value ([17]; 63 g ai/ha) was 100. For the same compound, the “Pre-emerge Herbicidal Activity, phytotoxicity rating (0-100), ABUTH” value ([17]; 250 g ai/ha) was 100, the “Pre-emerge Herbicidal Activity, phytotoxicity rating (0-100), ECHCG” value ([18]; 63 g ai/ha) was 10 and the “Pre-emerge Herbicidal Activity, phytotoxicity rating (0-100), ECHCG” value ([18]; 250 g ai/ha) was 100. The “Pre-emerge Herbicidal Activity, phytotoxicity rating (0-100), IPOHE” value ([19]; 63 g ai/ha) was 70, the “Pre-emerge Herbicidal Activity, phytotoxicity rating (0-100), IPOHE” value ([19]; 250 g ai/ha) was 100 and the “Pre-emerge Herbicidal Activity, phytotoxicity rating (0-100), AMBEL” value ([20]; 63 g ai/ha) was 60. The “Pre-emerge Herbicidal Activity, phytotoxicity rating (0-100), AMBEL” value ([20]; 250 g ai/ha) was 100, the “phytotoxicity rating CORN” value ([21]; 63 g ai/ha) was 10 and the “phytotoxicity rating CORN” value ([21]; 250 g ai/ha) was 70. For the same compound, the “phytotoxicity rating RICE” value ([22]; 63 g ai/ha) was 60, the “phytotoxicity rating RICE” value ([22]; 250 g ai/ha) was 65 and the “Pre-emerge phytotoxicity rating (0-100), crop damage, CORN” value ([23]; 63 g ai/ha) was 5. The “Pre-emerge phytotoxicity rating (0-100), crop damage, CORN” value ([23]; 250 g ai/ha) was 70, the “Pre-emerge phytotoxicity rating (0-100), crop damage, RICE” value ([24]; 63 g ai/ha) was 25 and the “Pre-emerge phytotoxicity rating (0-100), crop damage, RICE” value ([24]; 250 g ai/ha) was 90.
